Laboratory results reported in patent US20200392562A1, “[…] REACTION C[…]” (priority 2017, published 2020).
“Also recorded” adds a separate entry of the source. Counter-ions that a name gives are not always drawn. Like-named read-outs stand apart in the source and are kept apart here.

Experiments:
[1] = test system: Platinum SuperFi DNA polymerase; type: biochemical; conditions: for yield of PCR product: up to 20 μl of Agencourt XP magnetic beads in 50 μl PCR reaction, amine instead of 110 mM KCl
Experimental: PCR yield and tolerance for magnetic beads in PCR master mix with different amines compared to the control master mix (with KCl) was evaluated by amplification of a 1 kb fragment from 42 ng of human genomic DNA template. PCR was performed in 50 μl PCR reactions in the presence of increasing amounts of magnetic beads.
The PCR master mix (1×) concentration of KCl (110 mM) was substituted for solution comprising an amine.
Agencourt XP magnetic beads were used in the experiment. From 5 to 35 μl of magnetic beads were washed 2 times with 80% EtOH and dried (an imitation of a protocol for purifying nucleic acids). Dried magnetic beads were resuspended in 50 μl of PCR reaction (complete with PCR master mix, DNA matrix, and primers). The forward primer was SEQ ID No: 3, and the reverse primer was SEQ ID No: 4.
(§1) Products were detected by electrophoresis in a 1% TAE gels followed by staining with ethidium bromide.

[2] = test system: Platinum SuperFi DNA polymerase
Experimental: Yield and tolerance for urea in PCR master mix with different amines compared to the control master mix (with KCl) was evaluated by amplification of a 1 kb fragment from 42 ng of human genomic DNA template in 50 μl PCR reactions.
PCR master mix (1×) composition was 0.16 u/μL Platinum SuperFi DNA polymerase in 1× SuperFi buffer. In some experiments, 110 mM of KCl was substituted for solution comprising amines. […]
The PCR program used for the experiment is described in Table 4.
as §1

Taq DNA polymerase = Taq DNA polymerase (Thermus aquaticus, UniProt P19821); type: biochemical
Sequence of Taq DNA polymerase (P19821 whole entry): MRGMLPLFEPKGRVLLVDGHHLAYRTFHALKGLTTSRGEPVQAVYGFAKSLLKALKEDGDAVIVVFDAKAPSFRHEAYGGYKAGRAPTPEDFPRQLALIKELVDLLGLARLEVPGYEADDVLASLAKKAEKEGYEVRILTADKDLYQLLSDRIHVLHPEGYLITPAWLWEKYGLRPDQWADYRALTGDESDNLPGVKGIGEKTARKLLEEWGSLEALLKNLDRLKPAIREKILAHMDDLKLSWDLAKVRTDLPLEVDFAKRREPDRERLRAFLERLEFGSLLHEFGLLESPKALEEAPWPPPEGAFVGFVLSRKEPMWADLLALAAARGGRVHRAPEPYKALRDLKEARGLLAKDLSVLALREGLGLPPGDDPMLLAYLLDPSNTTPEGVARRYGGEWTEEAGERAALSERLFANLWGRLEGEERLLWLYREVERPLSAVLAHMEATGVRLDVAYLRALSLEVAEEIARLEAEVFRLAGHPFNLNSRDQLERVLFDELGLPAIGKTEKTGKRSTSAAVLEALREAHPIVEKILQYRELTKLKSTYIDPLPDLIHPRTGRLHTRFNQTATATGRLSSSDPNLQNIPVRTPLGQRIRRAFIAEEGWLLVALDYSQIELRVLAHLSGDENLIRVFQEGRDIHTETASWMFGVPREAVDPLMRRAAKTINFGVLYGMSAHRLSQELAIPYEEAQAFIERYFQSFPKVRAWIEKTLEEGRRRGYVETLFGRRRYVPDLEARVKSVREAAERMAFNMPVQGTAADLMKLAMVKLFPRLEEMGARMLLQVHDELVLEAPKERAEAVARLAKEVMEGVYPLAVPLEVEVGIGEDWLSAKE
Excerpt: A forward primer (SEQ ID No: 1) and a reverse primer (SEQ ID No: 2) were used with the PCR program described in Table 3. PCR products were detected by agarose gel electrophoresis followed by ethidium bromide staining

[3] = test system: mutant Taq DNA polymerase
[4] = PCR buffers containing amine, PCR buffer 1: 0.04%
[5] = sodium citrate 0-0.08%, PCR buffers with 10, 40 or 50 mM amine
[6] = urea 0-230 mM, PCR buffers with 10, 40 or 50 mM amine

| SMILES | yield of PCR product [1] | PCR yield [2] | tolerance to urea compared to PCR buffer with KCl [2] | PCR product yield compared to PCR buffer 1 without amines (Taq DNA polymerase) | greater tolerance to sodium citrate compared to PCR buffer 1 (Taq DNA polymerase) [times] | greater tolerance to urea compared with PCR buffer 1 (Taq DNA polymerase) [times] | sodium citrate concentration tolerated (Taq DNA polymerase) [%] | PCR product yield compared with PCR buffer 1 (Taq DNA polymerase; hydrochloride) | sodium citrate concentration tolerated (Taq DNA polymerase; [4]) [%] | PCR product yield compared with PCR buffer 1 (Taq DNA polymerase; [5]) | greater tolerance to sodium citrate compared to PCR buffer 1 (Taq DNA polymerase; sodium citrate, PCR buffer 1: 0.04%) [times] | PCR product yield compared with PCR buffer 1 (Taq DNA polymerase; [6]) | greater tolerance to urea compared with PCR buffer 1 (Taq DNA polymerase; urea, PCR buffer 1: 37 mM) [times] | PCR product yield [3] | tolerated amount of magnetic beads in the PCR reaction [1] | PCR product yield in the presence of magnetic beads ([1]; reaction buffer with 70, 80 or 90 mM KCl, part or all of the potassium salt replaced with amine, data not shown) | PCR product yield (SuperFi DNA polymerase) | tolerance to sodium citrate compared with PCR buffer 1 (Taq DNA polymerase; sodium citrate 0-0.08%, PCR buffers containing amine) | resistance to urea compared with PCR buffer 1 (Taq DNA polymerase; urea 0-230 mM, PCR buffers containing amine) |
| --- | --- | --- | --- | --- | --- | --- | --- | --- | --- | --- | --- | --- | --- | --- | --- | --- | --- | --- | --- |
| CCNCC.Cl [diethylamine hydrochloride] | Increased yield | much higher | Increased tolerance | higher | 1.25 | 2.5 | 0.05 | increased; also recorded: Higher | – | – | – | – | – | – | – | – | – | – | – |
| CC(C)NC(C)C.Cl [diisopropylamine hydrochloride] | – | – | – | higher | – | – | – | – | 0.05 | Higher | 1.25 | increased | 2.5 | – | – | – | – | – | – |
| CNC [dimethylamine hydrochloride] | Increased yield | much higher | – | – | – | – | – | – | – | – | – | – | – | increased | increased the tolerated amount | increased | increased | – | – |
| CN(C)C [trimethylamine hydrochloride] | Increased yield | – | – | higher | – | – | – | – | 0.04 | Higher | – | increased | – | – | – | – | – | same tolerance | same resistance |
